From the supplement of paper PMC10307832

What was measured:
Assay in all cases: relative viability (nuclei count vs DMSO), 5 days (fraction); higher = more cells survive
Erlotinib + Palbociclib = compound: C#Cc1cccc(Nc2ncnc3cc(OCCOC)c(OCCOC)cc23)c1 [Erlotinib] + CC(=O)c1c(C)c2cnc(Nc3ccc(N4CCNCC4)cn3)nc2n(C2CCCC2)c1=O [Palbociclib] (partner 0.5 µM)
Outline: (§1)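 Lung cancer cell lines were pin-tool dosed in 1536-well plates on the day after seeding, with either a lone drug or a fixed anchor-drug dose plus five library-drug doses (not always all listed) in √10 steps. Nuclei were counted on 4× images after 5 days. Relative viability is the ratio of treated-well to vehicle-well nuclei counts, with each value a median of duplicate plates.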

Erlotinib + Foretinib = compound: C#Cc1cccc(Nc2ncnc3cc(OCCOC)c(OCCOC)cc23)c1 [Erlotinib] + COc1cc2c(Oc3ccc(NC(=O)C4(C(=O)Nc5ccc(F)cc5)CC4)cc3F)ccnc2cc1OCCCN1CCOCC1 [Foretinib] (partner 0.25 µM)
Outline: as §1

Erlotinib + Pemetrexed = compound: C#Cc1cccc(Nc2ncnc3cc(OCCOC)c(OCCOC)cc23)c1 [Erlotinib] + Nc1nc2[nH]cc(CCc3ccc(C(=O)N[C@@H](CCC(=O)O)C(=O)O)cc3)c2c(=O)[nH]1 [Pemetrexed] (partner 0.2 µM)
Outline: as §1

AT9283 + Bortezomib = compound: O=C(Nc1c[nH]nc1-c1nc2ccc(CN3CCOCC3)cc2[nH]1)NC1CC1 [AT9283] + CC(C)C[C@H](NC(=O)[C@H](Cc1ccccc1)NC(=O)c1cnccn1)B(O)O [Bortezomib] (partner 0.002 µM)
Outline: as §1

AT9283 + Tozasertib = compound: O=C(Nc1c[nH]nc1-c1nc2ccc(CN3CCOCC3)cc2[nH]1)NC1CC1 [AT9283] + Cc1cc(Nc2cc(N3CCN(C)CC3)nc(Sc3ccc(NC(=O)C4CC4)cc3)n2)n[nH]1 [Tozasertib] (partner 0.1 µM)
Outline: as §1

Cell Line	relative viability (Erlotinib + Palbociclib; first compound 0.02 µM)	relative viability (Erlotinib + Palbociclib; first compound 0.2 µM)	relative viability (Erlotinib + Palbociclib; first compound 0.6325 µM)	relative viability (Erlotinib + Palbociclib; first compound 2 µM)	relative viability (Erlotinib + Foretinib; first compound 0.02 µM)	relative viability (Erlotinib + Foretinib; first compound 0.2 µM)	relative viability (Erlotinib + Foretinib; first compound 0.6325 µM)	relative viability (Erlotinib + Foretinib; first compound 2 µM)	relative viability (Erlotinib + Pemetrexed; first compound 0.02 µM)	relative viability (Erlotinib + Pemetrexed; first compound 0.2 µM)	relative viability (Erlotinib + Pemetrexed; first compound 0.6325 µM)	relative viability (Erlotinib + Pemetrexed; first compound 2 µM)	relative viability (AT9283 + Bortezomib; first compound 0.003 µM)	relative viability (AT9283 + Bortezomib; first compound 0.03 µM)	relative viability (AT9283 + Bortezomib; first compound 0.09487 µM)	relative viability (AT9283 + Bortezomib; first compound 0.3 µM)	relative viability (AT9283 + Tozasertib; first compound 0.003 µM)	relative viability (AT9283 + Tozasertib; first compound 0.03 µM)	relative viability (AT9283 + Tozasertib; first compound 0.09487 µM)	relative viability (AT9283 + Tozasertib; first compound 0.3 µM)
NCI-H2085	0.465	0.44	0.379	0.381	1.14	0.739	0.649	0.559	0.867	0.695	0.716	0.474	1.03	0.937	0.984	0.485	0.835	0.832	0.5	0.387
NCI-H2087	0.238	0.246	0.212	0.226	1.12	1.18	1.12	0.964	0.753	0.704	0.728	0.701	0.753	0.626	0.447	0.23	0.24	0.192	0.189	0.148
NCI-H2126	0.381	0.364	0.349	0.367	1.29	1.05	0.947	0.764	0.717	0.6	0.415	0.376	1.11	1.09	1.1	0.528	0.788	0.506	0.341	0.313
NCI-H2228	0.805	0.739		0.572	0.897	0.885	0.946	0.815	0.335	0.295	0.362	0.337	1.04	0.529	0.118	0.176	0.333	0.199	0.142	0.138
NCI-H2347	0.432	0.415	0.429	0.468	0.877	0.841	1.08	0.61	0.454	0.401	0.439	0.409	0.933	1.01	1	0.539	0.517	0.456	0.336	0.326
NCI-H2405	0.534	0.521	0.535	0.54		1.02	1.09	1.01	0.893	1.1	1.06	1.09	0.875	0.967	0.721	0.33	0.689	0.418	0.272	0.261
NCI-H3122	0.195	0.215	0.159	0.195	0.982	0.989	0.963	0.884	0.215	0.186	0.179	0.168	1.04	1.02	0.548	0.37	0.338	0.348	0.319	0.113
